Read-outs that look alike come from different tables or passages of the source.
Legend:
Experiment in all cases: Test D pre-/postemergence plant response
Type in all cases: in vivo
[1] = system: lambsquarters (Chenopodium album); settings: Chenopodium album, pre-emergence, Preemergence, scale 0 to 100 (0 no effect, 100 complete control), read-out: Plant response rating, Lambsquarters
In short: (§1)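 Seeds were planted in a loam and sand blend and sprayed preemergence. In parallel, seedlings grown in peat moss/vermiculite medium were sprayed postemergence at 2 to 18 cm height. Both used a surfactant-containing non-phytotoxic solvent. Greenhouse ratings at 13 to 15 days used a 0–100 control scale.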

[2] = system: large (Lg) crabgrass (Digitaria sanguinalis); settings: Digitaria sanguinalis; for pest or weed control at 16 g/ha: 16 g ai/ha; for pest or weed control at 31 g/ha: 31 g ai/ha; for pest or weed control at 62 g/ha: 62 g ai/ha; for pest or weed control at 125 g/ha: 125 g ai/ha
In short: as §1

[3] = system: morningglory (Ipomoea coccinea); settings: Ipomoea; for pest or weed control at 16 g/ha: 16 g ai/ha; for pest or weed control at 31 g/ha: 31 g ai/ha; for pest or weed control at 62 g/ha: 62 g ai/ha; for pest or weed control at 125 g/ha: 125 g ai/ha
In short: as §1

[4] = system: pigweed (Amaranthus retroflexus); settings: Amaranthus retroflexus; for pest or weed control at 16 g/ha: 16 g ai/ha; for pest or weed control at 31 g/ha: 31 g ai/ha; for pest or weed control at 62 g/ha: 62 g ai/ha; for pest or weed control at 125 g/ha: 125 g ai/ha
In short: as §1

soybean (Glycine max) = settings: Glycine max; for plant injury at 16 g/ha: 16 g ai/ha; for plant injury at 31 g/ha: 31 g ai/ha; for plant injury at 62 g/ha: 62 g ai/ha; for plant injury at 125 g/ha: 125 g ai/ha
In short: as §1

[5] = system: velvetleaf (Abutilon theophrasti); settings: Abutilon theophrasti; for pest or weed control at 16 g/ha: 16 g ai/ha; for pest or weed control at 31 g/ha: 31 g ai/ha; for pest or weed control at 62 g/ha: 62 g ai/ha; for pest or weed control at 125 g/ha: 125 g ai/ha
In short: as §1

[6] = system: waterhemp (common waterhemp, Amaranthus rudis); settings: Amaranthus tuberculatus; for pest or weed control at 16 g/ha: 16 g ai/ha; for pest or weed control at 31 g/ha: 31 g ai/ha; for pest or weed control at 62 g/ha: 62 g ai/ha; for pest or weed control at 125 g/ha: 125 g ai/ha
In short: as §1

[7] = post-emergence, Postemergence, scale 0 to 100 (0 no effect, 100 complete control), read-out: Crabgrass, Large plant response rating
[8] = post-emergence, Postemergence, scale 0 to 100, 0 no effect, 100 complete control, read-out: Plant response rating, Crabgrass, Large
[9] = pre-emergence, Preemergence, scale 0 to 100 (0 no effect, 100 complete control), read-out: Plant response rating, Crabgrass, Large
[10] = post-emergence, Postemergence, scale 0 to 100 (0 no effect, 100 complete control), read-out: Morningglory plant response rating
[11] = post-emergence, Postemergence, scale 0 to 100, 0 no effect, 100 complete control, read-out: Plant response rating, Morningglory
[12] = pre-emergence, Preemergence, scale 0 to 100 (0 no effect, 100 complete control), read-out: Plant response rating, Morningglory
[13] = post-emergence, Postemergence, scale 0 to 100 (0 no effect, 100 complete control), read-out: Pigweed plant response rating
[14] = post-emergence, Postemergence, scale 0 to 100, 0 no effect, 100 complete control, read-out: Plant response rating, Pigweed
[15] = pre-emergence, Preemergence, scale 0 to 100 (0 no effect, 100 complete control), read-out: Plant response rating, Pigweed
[16] = post-emergence, Postemergence, scale 0 to 100 (0 no effect, 100 complete control), read-out: Soybean plant response rating
[17] = post-emergence, Postemergence, scale 0 to 100, 0 no effect, 100 complete control, read-out: Plant response rating, Soybean
[18] = pre-emergence, Preemergence, scale 0 to 100 (0 no effect, 100 complete control), read-out: Plant response rating, Soybean
[19] = post-emergence, Postemergence, scale 0 to 100 (0 no effect, 100 complete control), read-out: Velvetleaf plant response rating
[20] = post-emergence, Postemergence, scale 0 to 100, 0 no effect, 100 complete control, read-out: Plant response rating, Velvetleaf
[21] = pre-emergence, Preemergence, scale 0 to 100 (0 no effect, 100 complete control), read-out: Plant response rating, Velvetleaf
[22] = post-emergence, Postemergence, scale 0 to 100 (0 no effect, 100 complete control), read-out: Waterhemp plant response rating
[23] = post-emergence, Postemergence, scale 0 to 100, 0 no effect, 100 complete control, read-out: Plant response rating, Waterhemp
[24] = pre-emergence, Preemergence, scale 0 to 100 (0 no effect, 100 complete control), read-out: Plant response rating, Waterhemp

Fc1cccc(Oc2ncc(Cl)cn2)c1-c1cc(C(F)F)on1 [Compound 55, 5-chloro-2-[2-[5-(difluoromethyl)-3-isoxazolyl]-3-fluorophenoxy]pyrimidine]
pest or weed control at 16 g/ha ([1]; 16 g ai/ha): 100% | pest or weed control at 31 g/ha ([1]; 31 g ai/ha): 100% | pest or weed control at 62 g/ha ([1]; 62 g ai/ha): 100% | pest or weed control at 16 g/ha [2, 7]: 5% | pest or weed control at 31 g/ha [2, 7]: 10% | pest or weed control at 62 g/ha [2, 8]: 10% | pest or weed control at 125 g/ha [2, 8]: 15% | pest or weed control at 125 g/ha ([2]; pre-emergence, Preemergence, read-out: Plant response rating (scale 0 to 100), Crabgrass, Large): 100% | pest or weed control at 16 g/ha [2, 9]: 100% | pest or weed control at 31 g/ha [2, 9]: 100% | pest or weed control at 62 g/ha [2, 9]: 100% | pest or weed control at 16 g/ha [3, 10]: 70% | pest or weed control at 31 g/ha [3, 10]: 70% | pest or weed control at 62 g/ha [3, 11]: 80% | pest or weed control at 125 g/ha [3, 11]: 85% | pest or weed control at 125 g/ha ([3]; pre-emergence, Preemergence, read-out: Plant response rating (scale 0 to 100), Morningglory): 100% | pest or weed control at 16 g/ha [3, 12]: 10% | pest or weed control at 31 g/ha [3, 12]: 50% | pest or weed control at 62 g/ha [3, 12]: 100% | pest or weed control at 16 g/ha [4, 13]: 85% | pest or weed control at 31 g/ha [4, 13]: 85% | pest or weed control at 62 g/ha [4, 14]: 98% | pest or weed control at 125 g/ha [4, 14]: 100% | pest or weed control at 125 g/ha ([4]; pre-emergence, Preemergence, read-out: Plant response rating (scale 0 to 100), Pigweed): 100% | pest or weed control at 16 g/ha [4, 15]: 100% | pest or weed control at 31 g/ha [4, 15]: 100% | pest or weed control at 62 g/ha [4, 15]: 100% | plant injury at 16 g/ha (soybean (Glycine max); [16]): 65% | plant injury at 31 g/ha (soybean (Glycine max); [16]): 75% | plant injury at 62 g/ha (soybean (Glycine max); [17]): 90% | plant injury at 125 g/ha (soybean (Glycine max); [17]): 95% | plant injury at 125 g/ha (soybean (Glycine max); pre-emergence, Preemergence, read-out: Plant response rating (scale 0 to 100), Soybean): 98% | plant injury at 16 g/ha (soybean (Glycine max); [18]): 25% | plant injury at 31 g/ha (soybean (Glycine max); [18]): 35% | plant injury at 62 g/ha (soybean (Glycine max); [18]): 95% | pest or weed control at 16 g/ha [5, 19]: 35% | pest or weed control at 31 g/ha [5, 19]: 50% | pest or weed control at 62 g/ha [5, 20]: 75% | pest or weed control at 125 g/ha [5, 20]: 85% | pest or weed control at 125 g/ha ([5]; pre-emergence, Preemergence, read-out: Plant response rating (scale 0 to 100), Velvetleaf): 100% | pest or weed control at 16 g/ha [5, 21]: 90% | pest or weed control at 31 g/ha [5, 21]: 100% | pest or weed control at 62 g/ha [5, 21]: 100% | pest or weed control at 16 g/ha [6, 22]: 85% | pest or weed control at 31 g/ha [6, 22]: 90% | pest or weed control at 62 g/ha [6, 23]: 98% | pest or weed control at 125 g/ha [6, 23]: 100% | pest or weed control at 125 g/ha ([6]; pre-emergence, Preemergence, read-out: Plant response rating (scale 0 to 100), Waterhemp): 100% | pest or weed control at 16 g/ha [6, 24]: 100% | pest or weed control at 31 g/ha [6, 24]: 100% | pest or weed control at 62 g/ha [6, 24]: 100%

Reference: US10131652B2, “Pyrimidinyloxy benzene derivatives as herbicides” (E. I. DU PONT DE NEMOURS AND COMPANY, priority 2014, dated 2018)
